Measured values from US8846012B2, “Melanin production inhibitor” (Pola Chemical Industries Inc., priority 2008, dated 2014).
Values after ≈ are worked out from the molar mass of the structure shown. Read-outs that look alike come from different tables or passages of the source.

Legend:
normal human melanocytes = experiment: Melanin production inhibition test using cultured normal human melanocytes (14C-thiouracil incorporation); format: cell-based; conditions: Homo sapiens, Melanocyte; for activity at 5 µM: addition amount 5.0 μM
Experimental: The inhibitory effect on melanin production of the melanin production inhibitor of the present invention can be measured using thiouracil which is incorporated specifically into cells in a melanin synthesis process in the cells. For example, the amount of melanin production can be measured by measuring an amount of thiouracil incorporated into cells by measuring an amount of radiation with radiolabeled thiouracil.
The inhibitory effect on melanin production of Compound 1 was evaluated using 2-thiouracil (^14C-labeled 2-thiouracil was used in this test) which is incorporated specifically into melanin in an intracellular melanin synthesis process. Complete medium for culture of melanocytes (manufactured by Kurabo Industries Ltd.) was added to 15 wells in a 24-well plate in an amount of 2 mL per well, and normal human melanocytes (manufactured by Kurabo Industries Ltd.) were seeded into the wells at a concentration of 1.5×10^4 cells/cm^2. The cells were cultured in a 5% carbon dioxide atmosphere at 37° C. for 24 hours. Thereafter, the medium in all the wells was exchanged under the following conditions: fresh complete medium for culture of melanocytes (control) was used in three wells; each of complete medium for culture of melanocytes, which including Compound 1 at concentrations of 1.0 μM, 2.0 μM, and 4.0 μM, was used in a total of nine wells including three wells for each concentration; and complete medium for culture of melanocytes, each of which including arbutin (positive control) known as a melanin production inhibitor at a concentration of 0.5 mM (500 μM), was used in the other three wells. Further, 2-[2-^14C]thiouracil (^14C-labeled thiouracil) was added to each of these 15 wells at 0.25×10^−6 Ci (curie). Then, the cells were cultured for further 3 days under the same conditions as the above. After the completion of culture, the culture medium was removed from the wells, and the cells were washed with phosphate buffered physiological saline (PBS) and then separated from the bottoms of the wells with medium including trypsin and EDTA to prepare cell suspensions, followed by centrifugation to collect the cells. The number of the cells was counted using a hemocytometer. Thereafter, the amounts of ^14C-thiouracil in the cells collected from each well (0.25×10^−6 Ci) were measured using a liquid scintillation counter (ALOKA CO., LTD.). The percentages of an amount of radioactivity in the cells cultured in the medium including the test substances with respect to an amount of radioactivity in the cells collected from the well of the control were calculated as amounts of melanin (%). That is, as the amount of radioactivity incorporated into the cells is smaller, the amount of melanin is evaluated to be smaller, i.e., the melanin inhibition effect of the component added is evaluated to be larger.
Inhibitory effects on melanin production of Compounds 2 to 39 (however, the effects of Compound 9 and 15 were not measured) were examined in the same procedure as in Test Example 1.
These were examined in the same procedure as in Test Example 1.
Further, the results of melanin production inhibition by treatment with the respective test compounds, determined in the same procedure as in Test Example 1, are also shown in the table.

[1] = test system: ultraviolet ray-induced pigmentation; experiment: Ultraviolet ray-induced pigmentation inhibition test using pigmented guinea pigs; format: in vivo; conditions: for ΔL* value: 1% (w/v) in ethanol, 30 μL once a day for 6 weeks, L* day 57 minus L* day 15, mean ± SD of eight animals; for inhibition of pigmentation induced by ultraviolet rays (in words): applied to the skin at a concentration of 1%
Excerpt: The hair of the dorsal skin of each of eight pigmented guinea pigs was removed and shaved using an electrical hair clipper and shaver, and each of the sites was covered with a black cloth having a total of four (two on the top and bottom and two on the right and left) irradiation windows with a size of 2×2 cm, and then irradiated with ultraviolet rays of 300 mJ/cm^2 using FL20S•E30 lamp as a light source. This operation was repeated on days 1, 3, 5, 8, 10, and 12 after the start of the test to induce pigmentation on the four test sites.
Compound 2, Compound 3, and Compound 4 were dissolved in ethanol at a concentration of 1% (w/v) to prepare samples for application. Further, as a control, ethanol was used alone as a sample for application.
On day 15 of the test, application of the samples was started. The respective samples were applied to the predetermined test sites once a day in an amount of 30 μL, and the application was continued for 6 weeks (until day 56 of the test).
On the day of the start of application (day 15 of the test) and after the completion of application for 6 weeks (on day 57 of the test), the skin brightness (L* value) of each of the test sites was measured using a colorimeter (CR-200, Konica Minolta Holdings, Inc.), and a ΔL* value was calculated by subtracting an L* value on day 15 of the test from an L* value on day 57 of the test. […] As degree of the pigmentation becomes stronger, the L* value becomes smaller. Therefore, it can be evaluated that, as the ΔL* value becomes larger, pigmentation is more inhibited.

[2] = test system: Trichopyton mentagrophytes (ATCC18748); experiment: Measurement of antimycotic activity (Alamar Blue growth inhibition of dermatophytes); format: cell-based; conditions: for MIC80: read-out: MIC80 Concentration
Experimental: 10.4 g of RPMI1640 (manufactured by SAFC Biosciences) were dissolved in 900 mL of distilled water, and 34.53 g of a 0.165 M MOPS buffer (manufactured by DOJINDO LABORATORIES) were added and dissolved by stirring.
Dermatophytes (Trichopyton mentagrophytes (ATCC18748)) were inoculated into a 1/10 Sabouraud Dextrose agar medium (manufactured by DIFCO) and cultured at 28° C. for 14 days, and then a conidial suspension was prepared using 0.1% Tween80-including physiological saline. The suspension was filtered through gauze, and the number of the conidia was counted using a hemocytometer and then adjusted to 2.5×10^5/mL with the RPMI1640 medium. The resultant suspension was used as an inoculum.
Compound 5 and clotrimazole were diluted with the RPMI1640 medium to prepare 0.3125, 0.625, 1.25, 2.5, 5, 10, 20, and 200 μg/mL diluted solutions. The diluted solutions having different concentrations were dispensed into a 96-well flat-bottom microplate in an amount of 100 μL per well, and 80 μL of the inoculum and 20 μL of an Alamar Blue solution (manufactured by Nalgene) were further added thereto. Further, 80 μL of the inoculum and 20 μL of the Alamar Blue solution were added to 100 μL of the RPMI1640 medium in growth control wells, and 20 μL of the Alamar Blue solution was added to 180 μL of the RPMI1640 medium in negative control wells. The microplate was placed in a chamber in which the humidity was kept constant, and culture was started at 27° C., and the cells were observed every 24 hours. 120 hours from beginning of culture, i.e., when the growth control became obviously red (reduced form), absorbance measurement at 570 nm was performed using a microplate reader (SPECTRAMAX 250, manufactured by Molecular Device).
The test compounds were tested at the respective concentrations in triplicate. The growth inhibition rate (%) of each of the test compound-added groups was determined by the following equation based on a value calculated by subtracting an average absorbance value of the negative control from an average absorbance value of the growth control and the test compound-added wells. Further, […] (minimum inhibitory concentration; the minimum concentration at which the growth inhibition rate is 80% or more) was calculated from the growth inhibition rate of each test compound. Growth inhibition rate (%)=[1−(average absorbance value in test compound-added wells-average absorbance value of negative control)/(average absorbance value of growth control-average absorbance value of negative control)]×100
Compound 1, Compounds 3 to 6, Compound 40, Compound 41, triphenylmethylamine, triphenylmethanol, triphenylmethane, aminodiphenylmethane, and clotrimazole were diluted with the RPMI1640 medium to prepare 0.3125, 0.625, 1.25, 2.5, 5, 10, 20, and 200 μg/mL diluted solutions. The diluted solutions having different concentrations were dispensed into a 96-well flat-bottom microplate in an amount of 100 μl, per well, and 80 μL of the inoculum and 20 μl, of an Alamar Blue solution (manufactured by Nalgene) were further added thereto. Further, 80 μl, of the inoculum and 20 μl, of the Alamar Blue solution were added to 100 μL of the RPMI1640 medium in growth control wells, and 20 μL of the Alamar Blue solution was added to 180 μL of the RPMI1640 medium in negative control wells. The microplate was placed in a chamber in which the humidity was kept constant, and then culture was started at 27° C., and the cells were observed every 24 hours. 120 hours from beginning of culture, i.e., when the growth control became obviously red (reduced form), absorbance measurement at 570 nm was performed using a microplate reader (SPECTRAMAX 250, manufactured by Molecular Device).
The test compounds were tested at the respective concentrations in triplicate. […]

[3] = minimum concentration at which the growth inhibition rate is 80% or more

Row | MIC80 [2, 3] | MIC80 Concentration [2, 3] | Structure (SMILES) | activity at 5 µM (normal human melanocytes; Table 2, control = 100%) | ΔL* value [1] | inhibition of pigmentation induced by ultraviolet rays (in words) [1] | activity at 10 µM (normal human melanocytes; Table 7, treatment concentration 10 μM, read-out: Amount of melanin) | growth inhibitory effect on Trichopyton mentagrophytes (in words) ([2]; added at a concentration of 100 μg/mL) | activity at 2 µM (normal human melanocytes; Table 7, treatment concentration 2 μM, read-out: Amount of melanin) | activity at 2 µM (normal human melanocytes; Table 2, addition amount 2.0 μM, control = 100%)
1 |  |  | OCCOC(c1ccccc1)(c1ccccc1)c1ccccc1 [Compound 2, 2-(triphenylmethyloxy)ethanol] | 44 ± 3.2% | 3.9 ± 0.94 | obviously inhibited pigmentation induced by ultraviolet rays |  |  |  | 
2 | > 100 µg/mL |  | OCCNC(c1ccccc1)(c1ccccc1)c1ccccc1 [Compound 3, 2-(triphenylmethylamino)ethanol] | 51.6 ± 4.2% | 3.9 ± 0.52 | obviously inhibited pigmentation induced by ultraviolet rays | 22.3 ± 0.63% | no growth inhibitory effect |  | 
3 | 100 µg/mL (≈ 330 µM) | 100.0000 µg/mL (≈ 330 µM) | NCCOC(c1ccccc1)(c1ccccc1)c1ccccc1 [Compound 4, 2-(triphenylmethyloxy)ethylamine] |  | 3.4 ± 0.8 | obviously inhibited pigmentation induced by ultraviolet rays |  |  | 34.2 ± 3.58% | 33.8 ± 0.8%
